Read-outs that look alike come from different tables or passages of the source.
Assays:
Format in all cases: cell-based
[1] = tested on: PANC1 (a human pancreatic carcinoma); experiment: IC50 activity in PANC1 cells
Experimental: (§1) Compounds provided in Table 2 were prepared using methods similar to those described herein. The structures and IC50 activities of particular compounds in PANC1 (a human pancreatic carcinoma), TC32 (human ESFT cell line), and TC71 (human ESFT cell line) cells are summarized in Table 2.

[2] = tested on: TC32 (human ESFT cell line); experiment: IC50 activity in TC32 cells
Experimental: as §1

[3] = tested on: TC71 (human ESFT cell line); experiment: IC50 activity in TC71 cells
Experimental: as §1
Growth inhibition of ESFT cells was measured for various concentrations of particular compounds.

[4] = Homo sapiens, PANC-1, PANC1 cells
[5] = Homo sapiens, TC-32, TC32 cells
[6] = Homo sapiens, TC-71, TC71 cells
[7] = PANC1 cells, read-out: IC50 PANC 1

Row | SMILES | IC50 [1, 4] [µM] | IC50 [2, 5] [µM] | IC50 [3, 6] [µM] | IC50 [1, 7] [µM] | IC50 ([2]; TC32 cells) [µM] | IC50 ([3]; TC71 cells) [µM] | potency compared with YK-4-279 ([3]; TC71 cells)
1 | Cc1ccc(C(=O)CC2(O)C(=O)Nc3c(Cl)ccc(Cl)c32)cc1 (centres unmarked) [YK-4-280] | ≥ 40 | 12.1 | 30.1 | – | – | – | –
2 | O=C(CC1(O)C(=O)Nc2c(Cl)ccc(Cl)c21)c1ccc(Cl)c(Cl)c1Cl (centres unmarked) [YK-4-288] | ≥ 40 | 3 | 9.35 | – | – | – | –
3 | C/C=C1\NC(=O)C(O)(CC(=O)c2ccc(OC)cc2)\C1=C/C (centres unmarked) [PT-2-37] | ≥ 40 | ≥ 40 | ≥ 40 | – | – | – | –
4 | O=C(CC1(O)C(=O)N(Cc2ccccc2)c2c(Cl)ccc(Cl)c21)c1ccc(Cl)cc1 (centres unmarked) [YK-4-276] | ≥ 40 | ≥ 40 | ≥ 40 | – | – | – | –
5 | COc1ccc(C(=O)CC2(OC)C(=O)Nc3c(Cl)ccc(Cl)c32)cc1 (centres unmarked) [PT-2-78] | ≥ 40 | ≥ 40 | ≥ 40 | – | – | – | –
6 | O=C(CC1(O)C(=O)Nc2c(Cl)ccc(Cl)c21)c1cccc(Cl)c1 (centres unmarked) [YK-4-281] | ≥ 40 | 7.22 | 29.6 | – | – | – | –
7 | COc1ccc(C(=O)/C=C2\C(=O)Nc3c(Cl)ccc(Cl)c32)c(OC)c1 [PT-1-39] | 5.41 | 1.05 | 1.81 | 6.76 | 1.66 | 2.32 | –
8 | COc1cc(OC)cc(C(=O)CC2(O)C(=O)Nc3c(Cl)ccc(Cl)c32)c1 (centres unmarked) [PT-1-22] | ≥ 40 | 8.99 | ≥ 40 | – | – | – | –
9 | O=C(CC1(O)C(=O)Nc2c(Cl)ccc(Cl)c21)c1ccc(Cl)cc1 (centres unmarked) [YK-4-275] | 11 | ≥ 40 | 23.9 | – | – | – | –
10 | COc1ccc(C(=O)CC2(O)C(=O)Nc3c(Cl)ccc(Cl)c32)c(OC)c1OC (centres unmarked) [PT-1-23] | ≥ 40 | 2.7 | 4.42 | – | – | – | –
11 | O=C(CC1(O)C(=O)Nc2c(Cl)ccc(Cl)c21)c1ccc(F)cc1 (centres unmarked) [YK-4-278] | ≥ 40 | ≥ 40 | ≥ 40 | – | – | – | –
12 | O=C(CC1(O)C(=O)Nc2c(Cl)ccc(Cl)c21)c1ccccc1 (centres unmarked) [YK-4-285] | ≥ 40 | ≥ 40 | ≥ 40 | – | – | – | –
13 | COc1cccc(C(=O)CC2(O)C(=O)Nc3c(Cl)ccc(Cl)c32)c1OC (centres unmarked) [PT-1-20] | ≥ 40 | ≥ 40 | ≥ 40 | – | – | – | –
14 | COc1ccc(C(=O)CC2(O)C(=O)N(C)c3c(Cl)ccc(Cl)c32)cc1 (centres unmarked) [PT-2-69] | ≥ 40 | 2.18 | – | – | 2.31 | – | –
15 | COc1ccc(C(=O)CC2(O)C(=O)Nc3c(Cl)ccc(Cl)c32)c(OC)c1 (centres unmarked) [PT-1-19] | 22.9 | 2.61 | 2.82 | – | – | – | –
16 | COc1ccc(C(=O)/C=C2\C(=O)Nc3c(Cl)ccc(Cl)c32)cc1 [PT-1-33] | ≥ 40 | 1.03 | 1.64 | – | – | – | –
17 | COc1ccc(C(=O)CC2(O)C(=O)Nc3cc(Br)cc(Br)c32)cc1 (centres unmarked) [PT-1-271] | ≥ 40 | ≥ 40 | ≥ 40 | – | – | – | –
18 | COc1ccc(C(=O)/C=C2/C(=O)Nc3c(Cl)ccc(Cl)c32)cc1 [PT-1-54] | – | 1.5 | 1.36 | – | 2.57 | 2.2 | –
19 | Nc1ccc(C(=O)CC2(O)C(=O)Nc3c(Cl)ccc(Cl)c32)cc1 (centres unmarked) [YK-4-284] | ≥ 40 | ≥ 40 | ≥ 40 | – | – | – | –
20 | O=C(CC1(O)C(=O)Nc2c(Cl)ccc(Cl)c21)c1ccc(O)cc1 (centres unmarked) [YK-4-289] | ≥ 40 | ≥ 40 | ≥ 40 | – | – | – | –
21 | O=C(CC1(O)C(=O)Nc2c(Cl)ccc(Cl)c21)c1ccc(Oc2ccccc2)cc1 (centres unmarked) [PT-1-60] | ≥ 40 | ≥ 40 | ≥ 40 | – | – | – | –
22 | COc1ccc(C(=O)CC2(O)C(=O)Nc3cccc(Cl)c32)cc1 (centres unmarked) [PT-1-275] | ≥ 40 | ≥ 40 | ≥ 40 | – | – | – | –
23 | O=C(CC1(O)C(=O)Nc2c(Cl)ccc(Cl)c21)c1ccc(Br)cc1 (centres unmarked) [YK-4-283] | 12.7 | 8.91 | 26 | – | – | – | –
24 | CN(C)c1ccc(C(=O)/C=C2/C(=O)Nc3c(Cl)ccc(Cl)c32)cc1 [PT-1-53] | 2.2 | ≥ 40 | 4.08 | – | – | – | –
25 | CN(C)c1ccc(C(=O)CC2(O)C(=O)Nc3c(Cl)ccc(Cl)c32)cc1 (centres unmarked) [PT-1-17] | ≥ 40 | 0.259 | 0.401 | – | 0.284 | 0.294 | appeared to be more potent

Row | SMILES | IC50 [1, 4] [µM] | IC50 [2, 5] [µM] | IC50 [3, 6] [µM] | IC50 [1, 7] [µM] | IC50 ([2]; TC32 cells) [µM] | IC50 ([3]; TC71 cells) [µM] | potency compared with YK-4-279 ([3]; TC71 cells)
26 | CCCC(=O)CC1(O)C(=O)N(C)c2c(Cl)ccc(Cl)c21 (centres unmarked) [PT-2-71] | ≥ 40 | ≥ 40 | ≥ 40 | – | – | – | –
27 | CCOc1ccc(C(=O)CC2(O)C(=O)Nc3c(Cl)ccc(Cl)c32)cc1 (centres unmarked) [PT-1-14] | 11.1 | 2.7 | 3.57 | – | – | – | –
28 | COc1ccccc1C(=O)CC1(O)C(=O)Nc2c(Cl)ccc(Cl)c21 (centres unmarked) [PT-1-12] | ≥ 40 | ≥ 40 | ≥ 40 | – | – | – | –
29 | COc1ccc(C(=O)CC2(O)C(=O)Nc3c(Cl)ccc(Cl)c32)cc1OC (centres unmarked) [PT-1-21] | ≥ 40 | ≥ 40 | ≥ 40 | – | – | – | –
30 | O=C(CC1(O)C(=O)Nc2c(Cl)ccc(Cl)c21)c1ccc(OC(F)(F)F)cc1 (centres unmarked) [PT-1-16] | ≥ 40 | ≥ 40 | ≥ 40 | – | – | – | –
31 | COc1ccc(C(=O)CC2(O)C(=O)Nc3c(Cl)cccc32)cc1 (centres unmarked) [PT-2-52] | ≥ 40 | ≥ 40 | ≥ 40 | – | – | – | –
32 | COc1cccc(C(=O)CC2(O)C(=O)Nc3c(Cl)ccc(Cl)c32)c1 (centres unmarked) [PT-1-18] | ≥ 40 | ≥ 40 | ≥ 40 | – | – | – | –
33 | COc1ccc(C(=O)CC2(O)C(=O)Nc3cc(Cl)c(Cl)cc32)cc1 (centres unmarked) [PT-2-39] | ≥ 40 | ≥ 40 | ≥ 40 | – | – | – | –
34 | O=C(CC1(O)C(=O)Nc2c(Cl)ccc(Cl)c21)c1ccc([N+](=O)[O-])cc1 (centres unmarked) [YK-4-286] | ≥ 40 | 4.63 | 9.15 | – | – | – | –
35 | O=C(CC1(O)C(=O)Nc2c(Cl)ccc(Cl)c21)c1ccc(Cl)c(Cl)c1 (centres unmarked) [YK-4-287] | 12.6 | 6.32 | 15.8 | – | – | – | –
36 | COc1ccc(C(=O)CC2(O)C(=O)N(C)c3ccccc32)cc1 (centres unmarked) [PT-2-64] | ≥ 40 | ≥ 40 | ≥ 40 | – | – | – | –
37 | O=C(CC1(O)C(=O)Nc2c(Cl)ccc(Cl)c21)c1ccc(C(F)(F)F)cc1 (centres unmarked) [PT-1-15] | 10.9 | 2.95 | 6.94 | – | – | – | –
38 | O=C(CC1(O)C(=O)Nc2c(Cl)ccc(Cl)c21)c1ccc(I)cc1 (centres unmarked) [YK-4-277] | ≥ 40 | ≥ 40 | ≥ 40 | – | – | – | –
39 | CSc1ccc(C(=O)CC2(O)C(=O)Nc3c(Cl)ccc(Cl)c32)cc1 (centres unmarked) [PT-1-67] | 28.1 | 0.982 | 0.909 | – | 1.2 | 1.41 | –
40 | CC(C)Oc1ccc(C(=O)CC2(O)C(=O)Nc3c(Cl)ccc(Cl)c32)cc1 (centres unmarked) [PT-1-69] | ≥ 40 | ≥ 40 | ≥ 40 | – | – | – | –
41 | COc1ccc(C(=O)CC2(O)C(=O)Nc3ccccc32)cc1 (centres unmarked) [PT-1-267] | ≥ 40 | ≥ 40 | ≥ 40 | – | – | – | –
42 | N#Cc1ccc(C(=O)CC2(O)C(=O)Nc3c(Cl)ccc(Cl)c32)cc1 (centres unmarked) [PT-1-11] | ≥ 40 | 10.3 | 12.3 | – | – | – | –
43 | COc1ccc(C(=O)CC2(OC)C(=O)N(C)c3c(Cl)ccc(Cl)c32)cc1 (centres unmarked) [PT-2-79] | 11.2 | 12.1 | 17 | – | – | – | –
44 | COc1ccc(CC(=O)CC2(O)C(=O)Nc3c(Cl)ccc(Cl)c32)cc1 (centres unmarked) [PT-2-59] | ≥ 40 | ≥ 40 | ≥ 40 | – | – | – | –
45 | COc1cc(C(=O)CC2(O)C(=O)Nc3c(Cl)ccc(Cl)c32)cc(OC)c1OC (centres unmarked) [PT-1-13] | ≥ 40 | ≥ 40 | ≥ 40 | – | – | – | –
46 | CN(C)c1ccc(C(=O)/C=C2\C(=O)Nc3c(Cl)ccc(Cl)c32)cc1 [PT-1-38] | – | 0.291 | – | – | 0.383 | – | –
47 | COc1ccc(C(=O)/C=C2\C(=O)Nc3c(Cl)ccc(Cl)c32)c(OC)c1OC [PT-1-41] | 2.85 | 1.19 | 2.14 | 5.16 | 1.61 | 1.6 | –
48 | COc1ccc(C(=O)CC2(O)C(=O)Nc3ccc(Cl)cc32)cc1 (centres unmarked) [PT-2-56] | ≥ 40 | 12.4 | ≥ 40 | – | – | – | –
49 | O=C(CC1(O)C(=O)Nc2c(Cl)ccc(Cl)c21)c1ccccc1Cl (centres unmarked) [YK-4-282] | ≥ 40 | ≥ 40 | ≥ 40 | – | – | – | –
50 | CCOc1ccc(C(=O)/C=C2\C(=O)Nc3c(Cl)ccc(Cl)c32)cc1 [PT-1-43] | 11 | 1.41 | 5.66 | – | – | – | –

— patent US9511050B2, “Methods and compositions for treating cancer” (GEORGETOWN UNIVERSITY, priority 2013, dated 2016)
